One assay has as its system bioPEG12-(TTAGGG)4-8oxo5. Put plainly: Biolayer interferometry (BLI), AKKQ binding to bioPEG12-(TTAGGG)4-8oxo5. Details: species or system human. Particulars: 150 nM biotinylated G4 DNA loaded on streptavidin biosensor, peptide 32-0.5 µM, Buffer H (pH 7.5, 150 mM KCl), 25 °C, plateau Δλ, 1:1 model, average and 95% confidence interval, n = 3. On the procedure: (§1) BLI assays were performed on a BLItz instrument (Pall Fortébio, Fremont, CA, USA). Streptavidin-coated biosensors were purchased from Pall Fortébio (Lot 1906281). Biosensors were hydrated in Buffer H for 10 min, and the baseline optical interference was recorded. A total of 150 nM of biotinylated G4 DNA or FANCJ PIP peptide was loaded onto the sensors over 2 min, after which they were washed with Buffer H. Binding reactions were initiated by placing the biosensors in analyte solutions at the indicated concentrations. After their interactions had reached an equilibrium, the sensors were returned to buffer to monitor dissociation of the complexes. Experiments were repeated in triplicate. BLI binding isotherms were generated by plotting the plateau values of the association phase versus total analyte concentration. These curves were fit to a 1:1 interaction model, as described above. The parameters reported were obtained from the average and 95% confidence interval of the three data sets.
(§2) We next validated our fluorescence spectroscopy results by biolayer interferometry (BLI). This technique measures the optical thickness of a biosensor surface, which can be used to examine the association and dissociation reactions of macromolecules. […] The optical interference pattern of the sensor alone was measured in Buffer H as an initial baseline (phase 1). […]
A general note: In BLI a coated tip is dipped into the sample, and binding shifts an interference pattern.

A further assay deals with (GGGT)4. Put plainly: Fluorescence spectroscopy, FANCJ AKKQ binding to (GGGT)4. Particulars: tryptophan fluorescence quenching, peptide 5 µM, excitation 280 nm; Buffer H (pH 7.5, 150 mM KCl), 25 °C; 1:1 model; average and 95% confidence interval, n = 3. On the procedure:
(§3) Equilibrium binding experiments were performed on a Cary Eclipse Fluorescence Spectrophotometer (Agilent Technologies, Santa Clara, CA, USA). Samples were maintained at 25 °C with a PCB 1500 water peltier system (Agilent). FANCJ peptide (5 µM) was placed in a microcuvette. Fluorescence spectra were collected from 300 nm to 450 nm (λexcitation = 280 nm) with slit widths set to 5 nm. A scan of Buffer H was used as a baseline. DNA substrate was titrated into the cuvette, and each mixture was equilibrated for 3 min prior to data collection. The extent of fluorescence quenching observed (ΔFobs) was calculated using the following equation, where F0 was the total fluorescence signal from the FANCJ peptide alone, and Fi was the total fluorescence intensity upon the ith addition of DNA:(1) ΔFobs=F0−Fi/F0
(§4) Binding isotherms were generated by plotting ΔFobs versus the total DNA concentration after correcting for sample dilution. The resulting curves were fit to a 1:1 interaction model using Scientist 3.0 software (Micromath, St. Louis, MO, USA) based on the following formulas, where A was the amplitude of fluorescence quenching and K was the equilibrium association constant. […] Fluorescence titrations were performed in triplicate. The reported values were determined from the average and 95% confidence interval of the three independent data-sets. […]

The next assay deals with bioPEG12-(TTAGGG)4. Put plainly: Biolayer interferometry (BLI), AKKQ binding to bioPEG12-(TTAGGG)4. The arrangement: species or system human. On the procedure:
as §1, §2

A further assay has as its system bioPEG12-(TTAGGG)4-8oxo1. Put plainly: Biolayer interferometry (BLI), AKKQ binding to bioPEG12-(TTAGGG)4-8oxo1. The arrangement: species or system human. Particulars: 150 nM biotinylated G4 DNA loaded on streptavidin biosensor, peptide 32-0.5 µM, Buffer H (pH 7.5, 150 mM KCl), 25 °C, plateau Δλ, 1:1 model, average and 95% confidence interval, n = 3. On the procedure: as §1, §2

The test system of a further assay is (TTAGGG)4 8oxo1. Put plainly: Fluorescence spectroscopy, FANCJ AKKQ binding to (TTAGGG)4 8oxo1. The arrangement: species or system human. Particulars: tryptophan fluorescence quenching, peptide 5 µM, excitation 280 nm; Buffer H (pH 7.5, 150 mM KCl), 25 °C; 1:1 model; 8oxoG at first guanine; average and 95% confidence interval, n = 3. On the procedure: as §3, §4

A further assay deals with (GGGT)4 8oxo1. Put plainly: Fluorescence spectroscopy, FANCJ AKKQ binding to (GGGT)4 8oxo1. On the procedure:
as §3, §4

The subject of another assay is (TTAGGG)4 8oxo5. Put plainly: Fluorescence spectroscopy, FANCJ AKKQ binding to (TTAGGG)4 8oxo5. Details: species or system human. Particulars: tryptophan fluorescence quenching, peptide 5 µM, excitation 280 nm; Buffer H (pH 7.5, 150 mM KCl), 25 °C; 1:1 model; 8oxoG at fifth guanine; average and 95% confidence interval, n = 3. On the procedure:
as §3, §4

For another assay, the system named is (GGGT)4 8oxo5. Put plainly: Fluorescence spectroscopy, FANCJ AKKQ binding to (GGGT)4 8oxo5. Particulars: tryptophan fluorescence quenching, peptide 5 µM, excitation 280 nm; Buffer H (pH 7.5, 150 mM KCl), 25 °C; 1:1 model; 8oxoG at fifth guanine; average and 95% confidence interval, n = 3. On the procedure: as §3, §4
Assay [1] has as its system (TTAGGG)4 human telomeric G4 DNA. Put plainly: Fluorescence spectroscopy, FANCJ AKKQ binding to (TTAGGG)4. Particulars: tryptophan fluorescence quenching, peptide 5 µM, excitation 280 nm, 300-450 nm; Buffer H (20 mM HEPES pH 7.5, 150 mM KCl, 5 mM TCEP, 5% (v/v) glycerol), 25 °C; 1:1 model; average and 95% confidence interval, n = 3. On the procedure: as §3, §4

Consider SPEKTTLAAKLSAKKQASIW [FANCJ AKKQ], for which the “K8oxo5 (equilibrium constant)” value in the assay on bioPEG12-(TTAGGG)4-8oxo5 was 1.8 ± 0.2 × 10^5 M^−1. Also, the figures for the “K (equilibrium association constant)” value (in the assay with (GGGT)4; in assay [1]) were 2.7 ± 0.4 × 10^5 M^−1 and 1.6 ± 0.7 × 10^6 M^−1, respectively. Also, in the assay on bioPEG12-(TTAGGG)4 (BLI, 150 nM biotinylated G4 DNA loaded on streptavidin biosensor, peptide 64-0.5 µM, Buffer H (pH 7.5, 150 mM KCl), 25 °C, plateau Δλ, 1:1 model, average and 95% confidence interval, n = 3), the “K (equilibrium constant)” value was 9.4 ± 1.1 × 10^4 M^−1. Moreover, in the assay on bioPEG12-(TTAGGG)4 (human telomeric G4, native, 8oxo1 and 8oxo5), the “BLI binding constants compared to the fluorescence measurements” value is “about one order of magnitude weaker compared to the fluorescence measurements”. Also, the “K8oxo1 (equilibrium constant)” value with bioPEG12-(TTAGGG)4-8oxo1 is 2.3 ± 0.8 × 10^5 M^−1. Also, the “K8oxo1 (equilibrium association constant)” value in the assay with (TTAGGG)4 8oxo1 was 1.3 ± 0.4 × 10^6 M^−1; in the assay with (GGGT)4 8oxo1 (tryptophan fluorescence quenching, peptide 5 µM, excitation 280 nm, Buffer H (pH 7.5, 150 mM KCl), 25 °C, 1:1 model, 8oxoG at first guanine, average and 95% confidence interval, n = 3), 7.7 ± 0.7 × 10^5 M^−1. Besides, the “Increase of equilibrium constant by oxidative damage” value in the assay with (GGGT)4 8oxo1 ((GGGT)4 8oxo1 and 8oxo5 relative to (GGGT)4, fluorescence) is reported as 1.5-3 fold. The “K8oxo5 (equilibrium association constant)” value in the assay with (TTAGGG)4 8oxo5 was 1.4 ± 0.5 × 10^6 M^−1; in the assay on (GGGT)4 8oxo5 it was 4.4 ± 0.6 × 10^5 M^−1.

(Values after PMC7017153, “Assembly of a G-Quadruplex Repair Complex by the FANCJ DNA Helicase and the REV1 Polymerase” (Genes, 2019).)
